# Measured values published in patent publication US20180352841A1, “COMPOSITION HAVING RICH-TASTE IMPARTING FUNCTION” (AJINOMOTO CO., INC., priority 2016, published 2018).
# What was measured:
# [1] = Organoleptic evaluation of coffee-like thickness in milk coffee with 0.2 ppm γ-Glu-Val-Gly (Example 1); conditions: for Coffee-like thickness (initial taste) / Coffee-like thickness (middle to aftertaste): milk coffee + 0.2 ppm γ-Glu-Val-Gly (control sample = score 0); for Coffee-like thickness (initial taste): 0 to 1 second after drinking, score 0 to 3 (0 no effect, 1 weakly effective, 2 effective, 3 strongly effective), 2 to 4 panelists, ingredient ppm: succinic acid 5, proline 12.5, KH2PO4 3, K2HPO4 12.5, L-tartaric acid 6, adipic acid 25, citric acid 3.5, CaCl2 50, MgCl2 12.5, DL-malic acid 3, trisodium citrate 0.8, sodium fumarate 1.5; for Coffee-like thickness (middle to aftertaste): 1 to 5 seconds after drinking, score 0 to 3, ingredient ppm as in Table 1 c0 (succinic acid 5, proline 12.5, KH2PO4 3, K2HPO4 12.5, L-tartaric acid 6, adipic acid 25, citric acid 3.5, CaCl2 50, MgCl2 12.5, DL-malic acid 3, trisodium citrate 0.8, sodium fumarate 1.5); for Thickness-enhancing effect for the initial taste: milk coffee + 0.2 ppm γ-Glu-Val-Gly, summary of Table 1
# Method: As an evaluation system, milk coffee (“Birdy Robusta”, Ajinomoto Co., (Thailand) Ltd.) was used. To this milk coffee, 0.2 ppm of γ-Glu-Val-Gly was added, to prepare a control sample.
# Organoleptic evaluation was performed by 2 to 4 persons of special panelists for strength of “coffee-like thickness” of each sample, to determine thickness-enhancing effects (thickness-boosting effect) of the ingredients to be evaluated.
# [2] = Organoleptic evaluation of thickness in cookie with 5 ppm γ-Glu-Val-Gly (Example 4); conditions: for Thickness (initial taste) / Thickness (middle to aftertaste): cookie, γ-Glu-Val-Gly 5 ppm in dough (control = score 0), score 0 to 3, L-tartaric acid 5 ppm, sodium L-tartrate 2 ppm, adipic acid 20 ppm, citric acid 1 ppm; for Thickness (initial taste): 0 to 4 seconds after eating; for Thickness (middle to aftertaste): 4 to 15 seconds after eating; for Thickness-enhancing effect for the initial taste: cookie with 5 ppm γ-Glu-Val-Gly, text summary of Table 4
# Method: Organoleptic evaluation was performed by 2 persons of special panelists for strength of “thickness” of each sample, to determine thickness-enhancing effects (thickness-boosting effect) of the ingredients to be evaluated. The organoleptic evaluation was performed by a four grade scoring method for initial taste, middle taste, and aftertaste (sensed in the periods of 0 to 4 second, 4 to 10 seconds, and 10 to 15 seconds after eating, respectively, which periods are defied for a solid) with scores of 0 to 3, wherein score 0 means no effect (i.e. strength of the thickness is the same as that of the control sample, score 1 means weakly effective, score 2 means effective, and score 3 means strongly effective.
# [3] = Organoleptic evaluation of salty taste-like thickness in potage soup with 2 ppm γ-Glu-Val-Gly (Example 2); conditions: for Salty taste-like thickness (initial taste) / Salty taste-like thickness (middle to aftertaste): potage soup + 2 ppm γ-Glu-Val-Gly (control = score 0), score 0 to 3, L-tartaric acid 6 ppm, adipic acid 25 ppm, citric acid 2 ppm; for Salty taste-like thickness (initial taste): 0 to 1 second; for Salty taste-like thickness (middle to aftertaste): 1 to 5 seconds
# [4] = Organoleptic evaluation of coffee-like thickness in milk coffee with 0.8 ppm γ-Glu-Abu (Example 3); conditions: for thickness-enhancing effect for initial taste: milk coffee + 0.8 ppm γ-Glu-Abu, summary of Table 3; for Coffee-like thickness (initial taste) / Coffee-like thickness (middle to aftertaste): milk coffee + γ-Glu-Abu 0.8 ppm (control = score 0), score 0 to 3, L-tartaric acid 6 ppm, adipic acid 25 ppm, citric acid 3.5 ppm; for Coffee-like thickness (initial taste): 0 to 1 second; for Coffee-like thickness (middle to aftertaste): 1 to 5 seconds
# Method: (§1) Organoleptic evaluation was performed by 2 to 4 persons of special panelists for strength of “coffee-like thickness” of each sample, to determine thickness-enhancing effects (thickness-boosting effect) of the ingredients to be evaluated. The organoleptic evaluation was performed by a four grade scoring method for initial taste, middle taste, and aftertaste (sensed in the periods of 0 to 1 second, 1 to 3 seconds, and 3 to 5 seconds after drinking, respectively, which periods are defined for a liquid) with scores of 0 to 3, wherein score 0 means no effect (i.e. strength of the thickness is the same as that of the control sample), score 1 means weakly effective, score 2 means effective, and score 3 means strongly effective.
# (§2) As an evaluation system, milk coffee (“Birdy Robusta”, Ajinomoto Co., (Thailand) Ltd.) was used.
# (§3) Organoleptic evaluation was performed for strength of “coffee-like thickness” of each sample by 2 persons of special panelists with the same criteria as those of Example 1 wherein score 0 was defined to mean the strength of thickness of each control sample, to determine thickness-enhancing effects (thickness-boosting effects) of the ingredients to be evaluated.
# [5] = Organoleptic evaluation of coffee-like thickness in milk coffee with 0.6 ppm γ-Glu-Abu-Gly (Example 3); conditions: for thickness-enhancing effect for initial taste: milk coffee + 0.6 ppm γ-Glu-Abu-Gly, summary of Table 3; for Coffee-like thickness (initial taste) / Coffee-like thickness (middle to aftertaste): milk coffee + γ-Glu-Abu-Gly 0.6 ppm (control = score 0), score 0 to 3, L-tartaric acid 6 ppm, adipic acid 25 ppm, citric acid 3.5 ppm; for Coffee-like thickness (initial taste): 0 to 1 second; for Coffee-like thickness (middle to aftertaste): 1 to 5 seconds
# Method: as §1, §2, §3
# [6] = Organoleptic evaluation of thickness in carbonated lemon drink with 15 ppm γ-Glu-Val-Gly (Example 2); conditions: for Thickness (initial taste) / Thickness (middle to aftertaste): carbonated lemon drink + 15 ppm γ-Glu-Val-Gly (control = score 0), score 0 to 3, L-tartaric acid 24 ppm, adipic acid 50 ppm, citric acid 3.5 ppm; for Thickness (initial taste): 0 to 1 second; for Thickness (middle to aftertaste): 1 to 5 seconds
# [7] = potage soup + 2 ppm γ-Glu-Val-Gly, Table 2
# [8] = carbonated lemon drink + 15 ppm γ-Glu-Val-Gly, Table 2
smiles,measurement,setting,value
O=C([O-])CC(O)(CC(=O)[O-])C(=O)[O-].[Na+].[Na+].[Na+] [Trisodium citrate],Coffee-like thickness (initial taste),[1],0
same,Coffee-like thickness (middle to aftertaste),[1],0
O=C(O)CCC(=O)O [Succinic acid],Coffee-like thickness (initial taste),[1],0
same,Coffee-like thickness (middle to aftertaste),[1],2.5
O=P([O-])([O-])O.[K+].[K+] [Dipotassium hydrogenphosphate],Coffee-like thickness (initial taste),[1],0
same,Coffee-like thickness (middle to aftertaste),[1],1.0
O=C([O-])/C=C/C(=O)[O-].[Na+].[Na+] [Sodium fumarate],Coffee-like thickness (initial taste),[1],0
same,Coffee-like thickness (middle to aftertaste),[1],0
O=C([O-])[C@H](O)[C@@H](O)C(=O)[O-].[Na+].[Na+] [Sodium L-tartrate],Thickness (initial taste),[2],0.7
same,Thickness (middle to aftertaste),[2],0.5
O=C(O)[C@@H]1CCCN1 [Proline],Coffee-like thickness (initial taste),[1],0
same,Coffee-like thickness (middle to aftertaste),[1],1.5
O=C(O)CCCCC(=O)O [Adipic acid],Thickness-enhancing effect for the initial taste,[2],observed
same,Thickness (initial taste),[2],1.2
same,Thickness (middle to aftertaste),[2],1.0
same,Salty taste-like thickness (initial taste),[3],1.3
same,Salty taste-like thickness (middle to aftertaste),[3],0
same,thickness-enhancing effect for initial taste,[3]; [7],observed
same,thickness-enhancing effect for initial taste,[4],observed
same,Coffee-like thickness (initial taste),[4],1.0
same,Coffee-like thickness (middle to aftertaste),[4],0.5
same,Coffee-like thickness (initial taste),[1],1.0
same,Coffee-like thickness (middle to aftertaste),[1],0
same,Thickness-enhancing effect for the initial taste,[1],observed
same,thickness-enhancing effect for initial taste,[5],observed
same,Coffee-like thickness (initial taste),[5],1.0
same,Coffee-like thickness (middle to aftertaste),[5],1.0
same,Thickness (initial taste),[6],1.5
same,Thickness (middle to aftertaste),[6],0
same,thickness-enhancing effect for initial taste,[6]; [8],observed
O=C(O)[C@H](O)[C@@H](O)C(=O)O [L-Tartaric acid],Thickness-enhancing effect for the initial taste,[2],observed
same,Thickness (initial taste),[2],1.5
same,Thickness (middle to aftertaste),[2],1.0
same,Salty taste-like thickness (initial taste),[3],1.3
same,Salty taste-like thickness (middle to aftertaste),[3],0
same,thickness-enhancing effect for initial taste,[3]; [7],observed
same,thickness-enhancing effect for initial taste,[4],observed
same,Coffee-like thickness (initial taste),[4],1.5
same,Coffee-like thickness (middle to aftertaste),[4],0
same,Coffee-like thickness (initial taste),[1],1.5
same,Coffee-like thickness (middle to aftertaste),[1],0
same,Thickness-enhancing effect for the initial taste,[1],observed
same,thickness-enhancing effect for initial taste,[5],observed
same,Coffee-like thickness (initial taste),[5],1.5
same,Coffee-like thickness (middle to aftertaste),[5],0
same,Thickness (initial taste),[6],1.0
same,Thickness (middle to aftertaste),[6],0
same,thickness-enhancing effect for initial taste,[6]; [8],observed
O=P([O-])(O)O.[K+] [Potassium dihydrogenphosphate],Coffee-like thickness (initial taste),[1],0
same,Coffee-like thickness (middle to aftertaste),[1],0.5
"O=C(O)CC(O)(CC(=O)O)C(=O)O [Citric acid, reference compound]",Thickness (initial taste),[2],0
same,Thickness (middle to aftertaste),[2],0
same,Salty taste-like thickness (initial taste),[3],0
same,Salty taste-like thickness (middle to aftertaste),[3],0
same,thickness-enhancing effect,[3]; [7],not observed
same,Coffee-like thickness (initial taste),[4],0
same,Coffee-like thickness (middle to aftertaste),[4],0
same,Coffee-like thickness (initial taste),[1],0
same,Coffee-like thickness (middle to aftertaste),[1],0
same,Coffee-like thickness (initial taste),[5],0
same,Coffee-like thickness (middle to aftertaste),[5],0
same,Thickness (initial taste),[6],0
same,Thickness (middle to aftertaste),[6],0
same,thickness-enhancing effect,[6]; [8],not observed
[Ca+2].[Cl-].[Cl-] [Calcium chloride],Coffee-like thickness (initial taste),[1],0
same,Coffee-like thickness (middle to aftertaste),[1],0
O=C(O)CC(O)C(=O)O (racemic) [DL-Malic acid],Coffee-like thickness (initial taste),[1],0
same,Coffee-like thickness (middle to aftertaste),[1],0
[Cl-].[Cl-].[Mg+2] [Magnesium chloride],Coffee-like thickness (initial taste),[1],0
same,Coffee-like thickness (middle to aftertaste),[1],0
